Activity calls are given as the source filed them. The rule behind the calls is not given here.
Key:
[1] = test system: Murine norovirus; experiment: Antiviral activity against Murine norovirus infected in Swiss Webster bone marrow derived macrophages assessed as reduction in viral plaque forming units; type: functional, organism-based
[2] = Plasma concentration in Balb/c mouse at 10 mg/kg, iv after 2 hrs by LC-MS analysis; type: ADME, organism-based
[3] = test system: A-375; experiment: Induction of p53 protein expression in Vemurafenib sensitive human A375 cells; type: functional, cell-based
[4] = target: T1, Ubiquitin carboxyl-terminal hydrolase 5 (Homo sapiens) (UniProt P45974); experiment: Inhibition of USP5 in Vemurafenib resistant human A375 cells assessed as reduction in ERK phosphorylation
T1 sequence (whole entry): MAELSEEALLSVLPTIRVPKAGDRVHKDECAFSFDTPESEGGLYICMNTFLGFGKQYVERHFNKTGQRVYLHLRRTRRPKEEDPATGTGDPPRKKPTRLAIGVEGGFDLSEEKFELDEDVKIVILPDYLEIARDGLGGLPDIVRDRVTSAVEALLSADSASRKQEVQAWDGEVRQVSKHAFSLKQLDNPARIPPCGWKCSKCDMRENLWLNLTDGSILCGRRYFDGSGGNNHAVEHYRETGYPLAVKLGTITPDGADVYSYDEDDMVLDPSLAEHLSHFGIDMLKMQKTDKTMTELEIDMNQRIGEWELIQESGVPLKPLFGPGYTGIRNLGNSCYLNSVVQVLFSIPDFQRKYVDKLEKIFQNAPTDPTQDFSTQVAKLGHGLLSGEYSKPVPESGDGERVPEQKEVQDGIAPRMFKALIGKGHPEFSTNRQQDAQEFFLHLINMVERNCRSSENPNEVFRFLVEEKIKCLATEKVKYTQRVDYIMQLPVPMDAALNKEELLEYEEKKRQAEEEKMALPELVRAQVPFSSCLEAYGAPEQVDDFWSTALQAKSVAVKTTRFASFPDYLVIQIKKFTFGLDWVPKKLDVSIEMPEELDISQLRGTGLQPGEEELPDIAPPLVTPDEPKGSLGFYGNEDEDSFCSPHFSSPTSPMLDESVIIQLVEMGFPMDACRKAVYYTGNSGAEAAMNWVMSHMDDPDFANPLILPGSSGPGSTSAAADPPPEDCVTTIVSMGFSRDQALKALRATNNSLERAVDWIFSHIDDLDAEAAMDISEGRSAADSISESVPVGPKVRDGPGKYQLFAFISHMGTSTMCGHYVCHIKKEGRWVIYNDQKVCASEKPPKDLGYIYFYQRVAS

[5] = target: T1, Ubiquitin carboxyl-terminal hydrolase 5 (Homo sapiens); experiment: Inhibition of USP5 in Vemurafenib […] human A375R cells assessed as reduction in ERK phosphorylation
[6] = test system: Mus musculus; experiment: Toxicity in human A375 cells xenografted NOD/SCID/gamma-2 knockout mouse assessed effect on body weight at 15 mg/kg, ip once per day for 8 days; type: functional, organism-based
[7] = test system: A-375; experiment: Antitumor activity against human A375 cells xenografted in NOD/SCID/gamma-2 knockout mouse assessed as inhibition of tumor growth at 7.5 to 15 mg/kg, ip once per day for 8 days followed by drug cessation and measured 10 days after drug cessation; type: functional, organism-based
[8] = test system: Mus musculus; experiment: Inhibition of Usp9x in tumor of human MM1S cells xenografted in NOD/SCID/gamma-2 knockout mouse at 15 mg/kg, ip once per day for 14 days; type: organism-based; settings: in vivo, 336 h
[9] = target: T1, Ubiquitin carboxyl-terminal hydrolase 5 (Homo sapiens); experiment: Inhibition of USP5 in Vemurafenib sensitive human A375 cells
[10] = test system: A375/R; experiment: Induction of apoptosis in human A375R cells assessed as induction of Bid cleavage; type: functional, cell-based
[11] = test system: La Crosse virus; experiment: Antiviral activity against La Crosse virus virus infected in human Be2-c cells assessed as reduction in viral plaque forming units; type: functional, organism-based
[12] = target: Ubiquitin carboxyl-terminal hydrolase 9X (Homo sapiens) (UniProt Q93008); experiment: Inhibition of USP9x in Vemurafenib resistant human A375 cells
[13] = target: T1, Ubiquitin carboxyl-terminal hydrolase 5 (Homo sapiens); experiment: Inhibition of USP5 in Vemurafenib resistant human A375 cells
[14] = target: Ubiquitin carboxyl-terminal hydrolase 9X (Homo sapiens) (UniProt Q93008); experiment: Inhibition of USP9x in Vemurafenib sensitive human A375 cells assessed as STAT3 phosphorylation
[15] = Plasma concentration in Balb/c mouse at 30 mg/kg, po after 7 hrs by LC-MS analysis; type: ADME, organism-based
[16] = target: T1, Ubiquitin carboxyl-terminal hydrolase 5 (Homo sapiens); experiment: Inhibition of USP5 in Vemurafenib […] human A375R cells assessed as increase in NOXA protein level
[17] = test system: NCI-H929; experiment: Induction of apoptosis in human NCI-H929 cells at 0.3125 to 5 uM incubated for 24 hrs by annexin V staining based flow cytometry; type: functional, cell-based
[18] = target: Ubiquitin carboxyl-terminal hydrolase 9X (Homo sapiens) (UniProt Q93008); experiment: Inhibition of Usp9x in primary tumor cells from patient with plasma cell leukemia assessed as reduction in MCL-1 protein levels at 5 uM incubated for 30 to 240 mins by SDS-PAGE and immunoblotting; type: cell-based
[19] = test system: A-375; experiment: Antitumor activity against human A375 cells xenografted in NOD/SCID/gamma-2 knockout mouse assessed as inhibition of tumor growth at 7.5 to 15 mg/kg, ip once per day for 8 days; type: functional, organism-based
[20] = target: Ubiquitin carboxyl-terminal hydrolase 9X (Homo sapiens) (UniProt Q93008); experiment: Inhibition of Usp9x in human MM1.S cells assessed as reduction in caspase activity by measuring cleaved PARP protein levels at 5 uM incubated for 5 to 240 mins by SDS-PAGE and immunoblotting; type: cell-based
[21] = test system: Sindbis virus; experiment: Antiviral activity against Sindbis virus infected in African green monkey Vero cells assessed as reduction in viral plaque forming units; type: functional, organism-based
[22] = test system: Mus musculus; experiment: Toxicity in human A375 cells xenografted NOD/SCID/gamma-2 knockout mouse assessed as induction of body weight loss at 7.5 to 15 mg/kg, ip once per day for 8 days; type: functional, organism-based
[23] = test system: Murine norovirus; experiment: Antiviral activity against Murine norovirus infected in Balb/c bone marrow derived macrophages assessed as reduction in viral plaque forming units; type: functional, organism-based
[24] = test system: Tulane virus; experiment: Antiviral activity against Tulane virus infected in […] LLC-MK cells assessed as reduction in viral plaque forming units; type: functional, organism-based

Chain of Ubiquitin carboxyl-terminal hydrolase 9X (Homo sapiens) (Q93008 whole entry): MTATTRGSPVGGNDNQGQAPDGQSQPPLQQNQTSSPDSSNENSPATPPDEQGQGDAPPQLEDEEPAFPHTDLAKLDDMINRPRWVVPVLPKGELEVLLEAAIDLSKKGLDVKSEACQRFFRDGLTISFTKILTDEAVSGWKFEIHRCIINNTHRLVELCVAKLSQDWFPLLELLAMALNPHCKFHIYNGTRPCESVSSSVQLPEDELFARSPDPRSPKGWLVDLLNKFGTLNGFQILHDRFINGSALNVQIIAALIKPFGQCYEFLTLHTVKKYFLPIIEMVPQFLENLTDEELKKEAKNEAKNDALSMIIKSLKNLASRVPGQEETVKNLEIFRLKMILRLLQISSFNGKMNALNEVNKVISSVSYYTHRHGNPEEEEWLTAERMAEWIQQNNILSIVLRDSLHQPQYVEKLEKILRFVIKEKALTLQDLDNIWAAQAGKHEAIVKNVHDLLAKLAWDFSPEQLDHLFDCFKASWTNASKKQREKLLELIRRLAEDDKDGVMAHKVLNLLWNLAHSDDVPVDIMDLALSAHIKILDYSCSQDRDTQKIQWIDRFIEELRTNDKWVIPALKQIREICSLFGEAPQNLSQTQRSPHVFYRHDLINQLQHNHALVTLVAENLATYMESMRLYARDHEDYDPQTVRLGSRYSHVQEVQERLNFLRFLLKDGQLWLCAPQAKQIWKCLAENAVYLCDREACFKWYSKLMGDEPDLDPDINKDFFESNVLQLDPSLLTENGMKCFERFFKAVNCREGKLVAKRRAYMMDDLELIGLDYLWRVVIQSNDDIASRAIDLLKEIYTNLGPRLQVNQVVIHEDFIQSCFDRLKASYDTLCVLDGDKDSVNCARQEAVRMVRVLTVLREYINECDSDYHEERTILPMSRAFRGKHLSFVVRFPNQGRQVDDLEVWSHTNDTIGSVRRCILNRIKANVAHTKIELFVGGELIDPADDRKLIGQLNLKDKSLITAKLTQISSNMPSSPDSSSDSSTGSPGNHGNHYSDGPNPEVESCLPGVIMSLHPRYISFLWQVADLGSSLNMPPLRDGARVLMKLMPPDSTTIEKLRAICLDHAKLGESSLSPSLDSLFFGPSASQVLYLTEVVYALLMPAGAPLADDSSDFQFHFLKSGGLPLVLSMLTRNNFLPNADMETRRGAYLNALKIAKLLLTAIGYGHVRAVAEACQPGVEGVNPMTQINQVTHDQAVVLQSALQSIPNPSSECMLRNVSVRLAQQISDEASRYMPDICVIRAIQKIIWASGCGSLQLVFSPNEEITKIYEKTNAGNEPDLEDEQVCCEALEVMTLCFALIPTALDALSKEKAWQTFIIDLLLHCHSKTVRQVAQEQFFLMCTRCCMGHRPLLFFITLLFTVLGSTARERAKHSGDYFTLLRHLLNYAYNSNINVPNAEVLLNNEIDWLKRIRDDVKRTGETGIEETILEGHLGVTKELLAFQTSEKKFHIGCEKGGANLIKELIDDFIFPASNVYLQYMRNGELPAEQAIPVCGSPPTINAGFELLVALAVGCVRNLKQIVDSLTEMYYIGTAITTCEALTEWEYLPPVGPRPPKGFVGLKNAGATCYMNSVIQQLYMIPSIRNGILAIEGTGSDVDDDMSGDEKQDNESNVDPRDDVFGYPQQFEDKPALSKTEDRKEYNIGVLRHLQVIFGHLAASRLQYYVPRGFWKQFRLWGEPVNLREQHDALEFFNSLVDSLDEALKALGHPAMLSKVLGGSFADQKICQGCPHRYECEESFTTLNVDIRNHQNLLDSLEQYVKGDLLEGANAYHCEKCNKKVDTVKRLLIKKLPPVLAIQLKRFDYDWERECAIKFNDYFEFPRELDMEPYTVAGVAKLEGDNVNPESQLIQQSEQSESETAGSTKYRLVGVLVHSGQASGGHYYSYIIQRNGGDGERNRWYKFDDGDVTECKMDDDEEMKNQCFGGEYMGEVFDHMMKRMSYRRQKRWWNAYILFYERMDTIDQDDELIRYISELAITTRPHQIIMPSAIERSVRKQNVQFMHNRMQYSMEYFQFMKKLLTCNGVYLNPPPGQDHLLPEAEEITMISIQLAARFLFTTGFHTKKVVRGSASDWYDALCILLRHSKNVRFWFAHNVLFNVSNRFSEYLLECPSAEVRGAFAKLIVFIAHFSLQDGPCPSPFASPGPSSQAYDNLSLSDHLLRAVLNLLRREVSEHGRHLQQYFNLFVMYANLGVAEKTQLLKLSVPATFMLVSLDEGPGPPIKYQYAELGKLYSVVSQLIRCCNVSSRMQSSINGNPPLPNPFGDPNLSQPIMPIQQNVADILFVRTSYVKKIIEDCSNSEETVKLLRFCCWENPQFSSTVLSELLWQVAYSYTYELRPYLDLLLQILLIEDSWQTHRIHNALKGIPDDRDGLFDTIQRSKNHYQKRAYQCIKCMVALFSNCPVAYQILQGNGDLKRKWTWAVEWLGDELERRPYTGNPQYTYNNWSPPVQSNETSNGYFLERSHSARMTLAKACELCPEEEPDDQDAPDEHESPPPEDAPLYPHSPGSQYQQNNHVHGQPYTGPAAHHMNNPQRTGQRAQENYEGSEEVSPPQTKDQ

SMILES: CCCC(NC(=O)/C(C#N)=C/c1nc(Cl)ccc1Cl)c1ccc(OCCN2CCOCC2)cc1 (centres undefined)
- Activity [1]: Active
- concentration at 2 h [2]: 395 to 520 ng/mL
- Activity [3]: inactive
- inhibition [4]: Active
- inhibition [5]: Active
- Activity [6]: Not toxic
- TGI [7]: inactive
- inhibition (INH) [8]: Active
- inhibition [9]: Active
- Activity [10]: Active
- Activity [11]: Active
- inhibition [12]: Active
- inhibition [13]: Active
- inhibition [14]: Active
- concentration at 7 h [15]: 16.1 to 37.6 ng/mL
- inhibition [16]: Active
- Activity [17]: Active
- inhibition [18]: Active
- TGI [19]: Active
- inhibition [20]: Active
- Activity [21]: Active
- Activity [22]: Not toxic
- Activity [23]: Active
- Activity [24]: Active

From ChEMBL document CHEMBL4257227, “Deubiquitinase inhibitors and methods for use of the same” (2016)
